5 compounds from patent US8445509B2, “Fused heterocyclic derivatives and use thereof” (Takeda Pharmaceutical Company Limited, priority 2008, dated 2013) can be followed below.

Bounds are passed on as bounds.

One experiment relates to MV-4-11 cells. Put plainly: Antitumor test, MV-4-11 transplanted nude mouse. The experiment is classed as in vivo, nude mouse (BALB/c nu/nu). The following applies: MV-4-11, dose 2 mg/kg, orally, 14 consecutive days. The protocol:
(§1) Cancer cells were cultured in a culture medium containing 10% bovine fetal serum in an incubator at 37° C., 5% CO2. MKN-45 cells were treated with trypsin/EDTA and isolated. MKN-45 and MV-4-11 cells were washed with HBSS (HANK's Balanced Saline Solution). When MKN-45 cells were transplanted, they were adjusted with HBSS to a cell density of 1.2×10^8 cells/mL, and transplanted by subcutaneous injection of 0.05 mL of a mixed suspension (3×10^6 cells) of the cell suspension and the same amount of Matrigel into the abdomen of 6 or 7-week-old female nude mouse (BALB/c nu/nu, CLEA Japan, Inc.). When MV-4-11 cells were transplanted, they were adjusted with HESS to a cell density of 1.2×10^8 cells/mL, and transplanted by subcutaneous injection of 0.05 mL of a mixed suspension (3×10^6 cells) of the cell suspension and the same amount of Matrigel into the abdomen of 7-week-old female nude mouse (BALB/c nu/nu, CLEA Japan, Inc.). When the average tumor volume reached 100-250 mm^3, the mice were grouped, and various doses of test substance were orally administered for 14 consecutive days starting from the next day. The length of the major axis and the length of the minor axis of the tumor were measured over time and the tumor volume was calculated by tumor volume=major axis length×minor axis length×minor axis length×0.5. The ratio of an increase in the average tumor volume of the control group to an increase in the average tumor volume of the drug administration group was taken as the tumor growth rate (%) of the drug administration group. Table 5 showned MKN-45 tumor growth rate (%) and table 6 showned MV-4-11 tumor growth rate (%).

The subject of a further experiment is MKN-45 cells. Kind of experiment: Antitumor test, MKN-45 transplanted nude mouse. The format is in vivo, nude mouse (BALB/c nu/nu). The following applies: orally, 14 consecutive days. Here is the method: as §1
Experiment [1] has as its system Human blood cell cancer cell line MV-4-11. Put plainly: Human blood cell cancer cell line MV-4-11 growth inhibitory test. The format is cell-based. The following applies: MV4-11, 72 h, culture for 3 days. Here is the method: Human blood cell cancer cell line MV-4-11 (ATCC) was cultured in IMDM (Invitrogen) containing 10% bovine fetal serum in an incubator at 37° C., 5% CO2. MV-4-11 cells were treated with trypsin/EDTA and recovered. The cells were suspended in IMDM containing 10% bovine fetal serum, plated on a 96 well flat bottom plate at a cells density of 30,000 cells/50 μL per well. After culturing overnight, various concentrations of test substance were dissolved in IMDM containing 10% bovine fetal serum and added to each well by 50 μL. After culture for 3 days, a Cell counting kit-8 reagent (DOJINDO LABORATORIES) was added to each well by 10 μL, and reacted in an incubator at 37° C., 5% CO2 for 2-3 hr. After the reaction, the absorbance of each well at 450 nm was measured by a microtiter plate reader. The concentration of a test substance necessary for inhibiting the growth by 50% (IC50 value) was calculated using a cell proliferation rate with addition of the test substance at each concentration and according to the nonlinear regression analysis using GraphPad Prism [Sigmoidal dose response (variable slope)].

Experiment [2] has as its system Human gastric cancer cell line MKN-45. Kind of experiment: Human gastric cancer cell line MKN-45 growth inhibitory test. The format is cell-based. Conditions: MKN-45, 72 h. The protocol:
Human gastric cancer cell line MKN-45 (RIKEN BioResource Center) was cultured in RPMI1640 (Invitrogen) containing 10% bovine fetal serum in a gas incubator at 37° C., 5% CO2. MKN-45 cells were treated with trypsin/EDTA and recovered. The cells were suspended in RPMI1640 containing 0.3% bovine fetal serum, plated on a 96 well flat bottom plate at a cells density of 3000 cells/50 μL per well. After culturing overnight, various concentrations of test substance were dissolved in RPMI1640 containing 0.3% bovine fetal serum and added to each well by 50 μL. After culture for 3 days, a Cell counting kit-8 reagent (DOJINDO LABORATORIES) was added to each well by 10 μL, and reacted in an incubator at 37° C., 5% CO2 for 2-3 hr. After the reaction, the absorbance of each well at 450 nm was measured by a microtiter plate reader. The concentration of a test substance necessary for inhibiting the growth by 50% (IC50 value) was calculated using a cell proliferation rate with addition of the test substance at each concentration and according to the nonlinear regression analysis using GraphPad Prism [Sigmoidal dose response (variable slope)]. The cell proliferation rate (%) with addition of a test substance at each concentration was calculated by the following formula. As a positive control (100% growth), dimethyl sulfoxide was added instead of a test substance. As a negative control (0% growth), the compound of Reference Example 136 (WO2005/030140, Entry 104), which is a known c-Met inhibitor, was added in large excess (10 μM) instead of a test substance.

Experiment [3] deals with T1, FLT3 intracellular domain protein (Homo sapiens, UniProt P36888).
T1 construct: 7.5 ng/ml of FLT3 intracellular domain protein (Millipore); purchased Millipore
T1 sequence (P36888 564-993 limits assumed): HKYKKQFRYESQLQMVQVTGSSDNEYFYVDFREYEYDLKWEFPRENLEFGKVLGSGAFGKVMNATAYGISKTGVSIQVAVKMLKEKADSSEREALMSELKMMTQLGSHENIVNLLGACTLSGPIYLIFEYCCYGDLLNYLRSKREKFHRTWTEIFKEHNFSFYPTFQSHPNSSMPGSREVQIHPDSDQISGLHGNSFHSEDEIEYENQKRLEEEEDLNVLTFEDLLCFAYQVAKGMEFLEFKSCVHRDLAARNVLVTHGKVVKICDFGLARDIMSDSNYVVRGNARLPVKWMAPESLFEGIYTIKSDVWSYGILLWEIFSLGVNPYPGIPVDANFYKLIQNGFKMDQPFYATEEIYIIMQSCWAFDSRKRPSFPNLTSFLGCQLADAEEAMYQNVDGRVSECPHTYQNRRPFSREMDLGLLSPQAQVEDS
Put plainly: Fms Like Tyrosine Kinase 3 (FLT3) kinase inhibitory activity (AlphaScreen). The experiment is classed as biochemical. The protocol:
A test compound dissolved in dimethyl sulfoxide (DMSO) was diluted with a buffer (50 mM Tris-HCl (pH 7.5), 5 mM MgCl2, 5 mM MnCl2, 2 mM dithiothreitol, 0.01% Tween-20). To this compound solution (5 μL) was added a buffer (10 μL) containing 7.5 ng/ml of FLT3 intracellular domain protein (Millipore) and 250 ng/mL of biotin labeled polypeptide biotinyl-poly-Glu:Tyr (4:1) (CIS bio International). At 5 min after mixing kinase enzyme and the compound and biotin labeled polypeptide, to the obtained mixture was added a buffer (10 μL) containing ATP (5 μM), the mixture was allowed to react at 25° C. for 10 min and the reaction was quenched with 25 μL of a stop solution (100 mM EDTA disodium salt, 62.5 mM HEPES buffer (pH 7.4), 250 mM NaCl, 0.1% bovine serum albumin, 10 μg/mL AlphaScreen assay streptavidin donor beads (Streptavidin Donor Beads: PerkinElmer), 10 μg/mL AlphaScreen assay anti-phosphotyrosine recognition antibody Y-100 binding acceptor beads (Anti-phosphotyrosine (P-Tyr-100) Acceptor beads: PerkinElmer)). The reaction solution was allowed to stand at 25° C. for 16 hrs, and the wells were counted using a plate reader (Envision™ (PerkinElmer)). The kinase inhibitory rate (%) of the test compound was calculated by the following formula: Inhibitory rate (%)=(1−(count of test compound−blank)÷(control−blank))×100
(§2) The count of the solution reacted without addition of the compound was used as a “control”, and the count of the solution without the compound and ATP was used as a “blank”.
On the technique in general: Alpha assays give light when donor and acceptor beads are brought close together.

Experiment [4] deals with Human umbilical vein-derived vascular endothelial cells (HUVEC). Kind of experiment: Vascular endothelial cell proliferation inhibitory test (VEGF-stimulated HUVEC). The experiment is classed as cell-based. The following applies: 120 h, 5 days of culture with VEGF. The protocol: Human umbilical vein-derived vascular endothelial cells (HUVEC purchased from KURABO […] LTD.) were cultured in an incubator at 37° C., 5% carbon dioxide in a vascular endothelial cell medium (Invitrogen) containing 3% bovine fetal serum and 2.5 ng/mL basic fibroblast growth factor. To be specific, HUVEC was suspended in a vascular endothelial cell medium containing the aforementioned 3% bovine fetal serum and plated on a 96 well flat bottom plate by 50 μL (3000 cells) each well. After culture overnight, various concentrations of the test substance and 120 ng/mL of vascular endothelial growth factor (VEGF) were dissolved in a vascular endothelial cell medium containing 3% bovine fetal serum and added to each well by 50 μL. After 5 days of culture, a Cell counting kit-8 reagent (DOJINDO LABORATORIES) was added to each well by 10 μL, and the mixture was reacted in an incubator at 37° C., 5% carbon dioxide for 2-3 hr. The absorbance at 450 nm was measured by a microtiter plate reader and the cell proliferation inhibitory activity was determined. Using the absorbance with addition of a test substance at each concentration and based on the nonlinear least-squares analysis using a logistic curve of SAS system NLIN procedure, the concentration of the test substance (IC50 value) necessary for showing 50% of the value obtained without addition of the test substance was calculated.

The target in experiment [5] is T2, Tie2 intracellular domain protein (Homo sapiens, UniProt Q02763).
T2 construct: 50 ng/mL of Tie2 intracellular domain protein (Millipore); purchased Millipore
T2 sequence (Q02763 770-1124 limits assumed): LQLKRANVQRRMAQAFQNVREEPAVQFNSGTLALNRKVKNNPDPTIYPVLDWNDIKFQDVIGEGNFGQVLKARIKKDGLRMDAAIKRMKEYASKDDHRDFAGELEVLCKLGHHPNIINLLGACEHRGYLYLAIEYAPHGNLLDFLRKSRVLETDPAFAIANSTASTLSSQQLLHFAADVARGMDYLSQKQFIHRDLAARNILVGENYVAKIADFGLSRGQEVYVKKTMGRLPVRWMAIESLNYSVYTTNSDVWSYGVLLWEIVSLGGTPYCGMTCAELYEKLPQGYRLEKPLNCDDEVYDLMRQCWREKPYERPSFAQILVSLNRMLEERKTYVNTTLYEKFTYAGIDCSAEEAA
Put plainly: TIE2 kinase inhibitory activity (AlphaScreen). The format is biochemical. Here is the method: A test compound dissolved in dimethyl sulfoxide (DMSO) was diluted with a buffer (50 mM Tris-HCl (pH 7.5), 5 mM MgCl2, 5 mM MnCl2, 2 mM dithiothreitol, 0.01% Tween-20). A buffer (10 μL) containing 50 ng/mL of Tie2 intracellular domain protein (Millipore) and 250 ng/ml, of biotin labeled polypeptide biotinyl-poly-Glu:Tyr (4:1) (CIS bio International) was added to the compound solution (5 μL). At 5 min from the mixing of the kinase enzyme, the compound and the biotin labeled polypeptide, a buffer (10 μL) containing 5 μM ATP was added, and the mixture was reacted at 25° C. for 10 min. The reaction was quenched by the addition of 25 μL of a stop solution (100 mM EDTA disodium salt, 62.5 mM HEPES buffer (pH 7.4), 250 mM NaCl, 0.1% bovine serum albumin, 10 μg/ml AlphaScreen assay streptavidin donor beads (Streptavidin Donor beads: PerkinElmer), 10 μg/ml, AlphaScreen assay anti-phosphotyrosine recognition antibody PT-66 binding acceptor beads (Anti-phosphotyrosine (PT-66) Acceptor beads: PerkinElmer)). The reaction solution was allowed to stand at 25° C. for 16 hrs, and the […] were counted using a plate reader (Fusion™ (PerkinElmer)). The kinase inhibitory rate (%) of the test compound was calculated by the following formula: Inhibitory rate (%)=(1−(count of test compound−blank)÷(control−blank))×100
as §2

Take `Cc1ccc(C(=O)Nc2ccc(Oc3ccc4nc(NC(=O)C5CC5)cn4c3)cn2)[n+]([O-])c1-c1ccc(F)cc1.Cl.O` [Example 63, N-[5-({2-[(cyclopropylcarbonyl)amino]imidazo[1,2-a]pyridin-6-yl}oxy)pyridin-2-yl]-6-(4-fluorophenyl)-5-methylpyridine-2-carboxamide 1-oxide•hydrochloride•monohydrate]: the “tumor growth rate (%)” value in the experiment with MV-4-11 cells is on record as <0%; with MKN-45 cells (MKN-45, dose 1 mg/kg), 24%.
In the case of `Cc1ccc(C(=O)Nc2ccc(Oc3ccc4nc(NC(=O)C5CC5)cn4c3)c(F)c2)c(=O)n1-c1ccccc1.Cl` [Example 88, N-[4-({2-[(cyclopropylcarbonyl)amino]imidazo[1,2-a]pyridin-6-yl}oxy)-3-fluorophenyl]-6-methyl-2-oxo-1-phenyl-1,2-dihydropyridine-3-carboxamide hydrochloride], the “tumor growth rate (%)” value in the experiment with MV-4-11 cells is reported as <0%; with MKN-45 cells (MKN-45, dose 2 mg/kg) it was 17%.
On to `Cl.O=C(Nc1cn2cc(Oc3ccc(NC(=O)C4(C(=O)Nc5ccccc5)CC4)cc3F)ccc2n1)C1CC1` [Example 15, N-[4-({2-[(cyclopropylcarbonyl)amino]imidazo[1,2-a]pyridin-6-yl}oxy)-3-fluorophenyl]-N′-phenylcyclopropane-1,1-dicarboxamide hydrochloride], for which the “tumor growth rate (%)” value is 17% with MV-4-11 cells and 85% with MKN-45 cells (MKN-45, dose 2 mg/kg).
The IC50 is the point on the concentration scale where inhibition reaches its midpoint. As to `Cc1ccc(C(=O)Nc2ccc(Oc3ccc4nc(NC(=O)C5CC5)cn4c3)c(F)c2)c(=O)n1-c1ccccc1` [Example 86, N-[4-({2-[(cyclopropylcarbonyl)amino]imidazo[1,2-a]pyridin-6-yl}oxy)-3-fluorophenyl]-6-methyl-2-oxo-1-phenyl-1,2-dihydropyridine-3-carboxamide acetate], the inhibition at 1 µM in experiment [1] (1 μM test substance, read-out: inhibitory rate (%) at 1 μM) is ≥ 90%; in experiment [2] (read-out: inhibitory rate (%) at 1 μM, 1 μM test substance, culture for 3 days), ≥ 80%. Also, the IC50 is ≤ 1 µM in experiment [1]; ≤ 1 µM in experiment [2] (read-out: IC50 value); ≤ 1 µM in experiment [3]; ≤ 2 µM in experiment [4]; ≤ 1 µM in experiment [5].
Consider `Cc1ccc(C(=O)Nc2ccc(Oc3ccc4nc(NC(=O)C5CC5)cn4c3)c(F)c2)c(=O)n1-c1ccccc1.Cc1ccc(S(=O)(=O)O)cc1` [Example 87, N-[4-({2-[(cyclopropylcarbonyl)amino]imidazo[1,2-a]pyridin-6-yl}oxy)-3-fluorophenyl]-6-methyl-2-oxo-1-phenyl-1,2-dihydropyridine-3-carboxamide p-toluenesulfonate], for which the “tumor growth rate (%)” value with MV-4-11 cells is given as <0%; in the experiment with MKN-45 cells (MKN-45, dose 2 mg/kg) it was 17%.
